Data as given in patent US20100189807A1, “Use of an ozone / oxygen mixture as a primary anticancer therapy via intraperitoneal insufflation” (priority 2009, published 2010).

Key:
[1] = test system: VX2 auricular carcinoma; assay: Therapy of auricular VX2 carcinoma in rabbits by intraperitoneal gas insufflation (survival, tumor clearance, lung metastases); format: in vivo, New Zealand White (NZW) rabbit; conditions: n=14 (O3/O2), n=13 (O2)
[2] = Hematological and clinical chemistry blood parameters; format: in vivo, New Zealand White (NZW) rabbit
Description: Arterial blood samples from the central auricular artery of the left tumor free ear were taken on day 14 post inoculation (directly before the first gas insufflation/sham treatment) and on day 19 post inoculation (24 h after the last gas insufflation/sham treatment). Additional blood samples were taken on day 90 from the O3/O2-rem animals (FIG. 1a). For hematological investigations we used an autoanalyzer (Vet abc™ Animal Blood Counter, ABX Diagnostics, Goettingen, Germany), that has been carefully adjusted and validated for the analysis of rabbit blood. For differential blood counts the RBC count was determined together with the hematocrit (HCT) and hemoglobin (HGB). […] Data were expressed as mean values±SEM. For clinical chemistry investigations creatinine, GOT, and GPT values were measured with the Reflovet® Plus system (Roche Diagnostics GmbH, Mannheim, Germany) to monitor for kidney and liver functions.
For comparison of survival rates of the three experimental groups the logrank test was performed considering p values<0.05 as significant. The survival probability of rabbits calculated from the time of tumor cell inoculation until day 90 was depicted according to the Kaplan-Meier method. […] Statistical differences in mean body weight between the experimental groups were evaluated at daily intervals with the unpaired Student's t test with two tail p values. […]

[3] = inhaled ozone; cited from earlier work

Compound	number of rabbits with remission of the tumor [1]	RBC ([2]; d 14, directly before the first insufflation)	RBC ([2]; d 19, 24 h after the last insufflation)	grade of adverse effect (weight loss) [3]
O=O [O2]	two	5.68 10^6/mm^3	5.31 10^6/mm^3	–
O=[O+][O-] [ozone]	–	–	–	grade II
